Results published in patent US20100291592A1, “NOVEL MARKER FOR SENSITIVITY AGAINST SULFONAMIDE COMPOUND” (priority 2006, published 2010).

System: EGFR1
Test: EGFR1 expression level in cultured HCT116-C9 (mass spectrometry, 12C/13C-leucine labelling)
Format: cell-based, human
Settings: HCT116-C9, 1 μM E7070, 24 hours, LC-MS/MS, treated/untreated
Protocol: First, RPMI-1640 (containing 10% FBS) supplemented with ^13C-labeled L-leucine (^13C-leucine, Cambridge Isotope Labs) and RPMI-1640 (containing 10% FBS) supplemented with non-isotope-labeled L-leucine (^12C-leucine) were prepared. Then, human colon cancer cell line HCT116-C9 was cultured in each medium through at least the fifth passage. HCT116-C9 was a subline separated from human colon cancer cell line HCT116 (obtained from ATCC) and known as a cell line highly sensitive to […] (Molecular Cancer Therapeutics, 2002, 1, 275-286). Thereafter, each cell was seeded in a 15-cm-diameter culture dish at a concentration of 1.0×10^7 cells/50 ml. Then, 24 hours later, 1 μM of […] was added to HCT116-C9 cultured in the ^12C-leucine-containing medium and nothing was added to HCTZ 16-C9 cultured in the ^13C-leucine-containing medium. These cells were continued culturing. Twenty-four hours later, the cells were washed twice with a phosphate buffer saline according to a routine procedure, added with 3 ml of M-PER (PIERCE) to solubilize the cells and then equal amounts of them were mixed. The cell lysates were dialyzed by a routine procedure to sublimate the solutions, and digested with trypsin, thereby obtaining peptide samples. The resulting peptide samples were analyzed with LC-MS/MS. […]

SMILES	Peak intensity ratio (12C/13C) of EGFR1-derived peptide fragment
NS(=O)(=O)c1ccc(S(=O)(=O)Nc2cccc3c(Cl)c[nH]c23)cc1 [E7070, N-(3-chloro-1H-indole-7-yl)-1,4-benzenedisulfonamide]	0.6-0.8

System: cancer cell line resistant to E7070
Test: not given
Settings: WO2006/030941 and WO2006/030947; cited from earlier work

SMILES	Cross-resistance of E7070-resistant cancer cell line (antiproliferative activity)
Nc1ccc(S(=O)(=O)Nc2cnc3c(Cl)cccc3n2)cc1 [CQS, 2-sulfanylamide-5-chloroquinoxaline]	cross-resistance
O=C(Nc1ccc(Cl)cc1)NS(=O)(=O)c1ccc2c(c1)CCC2 [LY186641, N-[[(4-chlorophenyl)amino]carbonyl]-2,3-dihydro-1H-indene-5-sulfonamide]	cross-resistance
O=C(Nc1ccc(Cl)c(Cl)c1)NS(=O)(=O)c1ccc2c(c1)CCO2 [LY295501, N-[[(3,4-dichlorophenyl)amino]carbonyl]-2,3-dihydrobenzofuran-5-sulfonamide]	cross-resistance
O=C(NS(=O)(=O)c1ccc(Br)s1)c1ccc(Cl)cc1Cl [LY573636, N-(2,4-dichlorobenzoyl)-5-bromothiophene-2-sulfonamide]	cross-resistance
O=C(NS(=O)(=O)c1ccc(Cl)cc1)c1ccc(Cl)cc1Cl [LY-ASAP, N-(2,4-dichlorobenzoyl)-4-chlorophenylsulfonamide]	cross-resistance
